Experimental data published in patent US9884832B2 (priority 2011, dated 2018).
Read-outs that look alike come from different tables or passages of the source.

What was measured:
[1] = biological target: AM2 S31N (serine→asparagine mutation at residue 31 in the M2 protein) (Influenza A virus, UniProt P0DOF5, S31N); format: cell-based, influenza virus A/Udorn/72
[2] = biological target: AM2 V27A (valine→alanine mutation at residue 27 in the M2 protein) (Influenza A virus, UniProt P0DOF5, V27A); format: cell-based, influenza virus A/Udorn/72

Row | SMILES | S31N OOcyte Inhibition at 100 uM (%) [1] | V27A OOcyte Inhibition at 100 uM (%) [2] | S31N OOcyte Inhibition at 100 uM (%) ([1]; pH 5.5) | V27A OOcyte Inhibition at 100 uM (%) ([2]; pH 5.5)
1 | COc1cc(Cl)sc1CNC12CC3CC(CC(C3)C1)C2 [Example 80a] | B (key: (A)=31-95%; (B)=0-30%) | B (key: (A)=31-95%; (B)=0-30%) |  | 
2 | c1cc2sc(CNC34CC5CC(CC(C5)C3)C4)cc2s1 [Example 81, Adamantan-1-yl-thieno[3,2-b]thiophen-2-ylmethyl-amine] |  |  | A (key: (A)=31-95%; (B)=0-30%) | B (key: (A)=31-95%; (B)=0-30%)
3 | Brc1ccc(CNC23CC4CC(CC(C4)C2)C3)s1 [Example 81a, N-((5-Bromothiophen-2-yl)methyl)adamantan-1-amine] | A (key: (A)=31-95%; (B)=0-30%) | B (key: (A)=31-95%; (B)=0-30%) |  | 
4 | CC(NC12CC3CC(CC(C3)C1)C2)c1ccc(I)s1 (stereo not drawn) [Example 82a, N-(1-(5-iodothiophen-2-yl)ethyl)adamantan-1-amine] | B (key: (A)=31-95%; (B)=0-30%) | A (key: (A)=31-95%; (B)=0-30%) |  | 
5 | c1cc2cc(CNC34CC5CC(CC(C5)C3)C4)sc2o1 [Example 83, Adamantan-1-yl-thieno[2,3-b]furan-5-ylmethyl-amine] |  |  | A (key: (A)=31-95%; (B)=0-30%) | B (key: (A)=31-95%; (B)=0-30%)
6 | Brc1nc(CNC23CC4CC(CC(C4)C2)C3)cs1 [Example 83a, N-((2-bromothiazol-4-yl)methyl)adamantan-1-amine] | A (key: (A)=31-95%; (B)=0-30%) | B (key: (A)=31-95%; (B)=0-30%) |  | 
7 | c1c(CNC23CC4CC(CC(C4)C2)C3)sc2c1CSC2 [Example 84, Adamantan-1-yl-(4,6-dihydro-thieno[3,4-b]thiophen-2-ylmethyl)-amine] |  |  | A (key: (A)=31-95%; (B)=0-30%) | B (key: (A)=31-95%; (B)=0-30%)
8 | [O-][S+]1Cc2cc(CNC34CC5CC(CC(C5)C3)C4)sc2C1 (stereo not drawn) [Example 85, Adamantan-1-yl-(5-oxo-5,6-dihydro-4H-5M-thieno[3,4-b]thiophen-2-ylmethyl)-amine] |  |  | B (key: (A)=31-95%; (B)=0-30%) | B (key: (A)=31-95%; (B)=0-30%)
9 | c1cn2cc(CNC34CC5CC(CC(C5)C3)C4)nc2s1 [Example 86, Adamantan-1-yl-imidazo[2,1-b]thiazol-6-ylmethyl-amine] |  |  | A (key: (A)=31-95%; (B)=0-30%) | B (key: (A)=31-95%; (B)=0-30%)
10 | Clc1c(CNC23CC4CC(CC(C4)C2)C3)nc2sccn12 [Example 87, Adamantan-1-yl-(5-chloro-imidazo[2,1-b]thiazol-6-ylmethyl)-amine] |  |  | B (key: (A)=31-95%; (B)=0-30%) | B (key: (A)=31-95%; (B)=0-30%)
11 | c1ccc2sc(CNC34CC5CC(CC(C5)C3)C4)cc2c1 [Example 88, Adamantan-1-yl-benzo[b]thiophen-2-ylmethyl-amine] |  |  | A (key: (A)=31-95%; (B)=0-30%) | B (key: (A)=31-95%; (B)=0-30%)
12 | c1ccc2sc(CNC34CC5CC(CC(C5)C3)C4)nc2c1 [Example 91, Adamantan-1-yl-benzothiazol-2-ylmethyl-amine] |  |  | A (key: (A)=31-95%; (B)=0-30%) | B (key: (A)=31-95%; (B)=0-30%)
13 | c1ccc2[nH]c(CNC34CC5CC(CC(C5)C3)C4)nc2c1 [Example 92, Adamantan-1-yl-(1H-benzoimidazol-2-ylmethyl)-amine] |  |  | A (key: (A)=31-95%; (B)=0-30%) | B (key: (A)=31-95%; (B)=0-30%)
14 | CC(NC12CC3CC(CC(C3)C1)C2)c1ccc(C#N)s1 (stereo not drawn) [Example 92a, 5-(1-(adamantan-1-ylamino)ethyl)thiophene-2-carbonitrile] | B (key: (A)=31-95%; (B)=0-30%) | B (key: (A)=31-95%; (B)=0-30%) |  | 
15 | c1ccc2[nH]c(CNC34CC5CC(CC(C5)C3)C4)cc2c1 [Example 93, Adamantan-1-yl-(1H-indol-2-ylmethyl)-amine] |  |  | A (key: (A)=31-95%; (B)=0-30%) | B (key: (A)=31-95%; (B)=0-30%)
16 | c1nc2ccc(CNC34CC5CC(CC(C5)C3)C4)cc2[nH]1 [Example 94, Adamantan-1-yl-(3H-benzoimidazol-5-ylmethyl)-amine] |  |  | B (key: (A)=31-95%; (B)=0-30%) | B (key: (A)=31-95%; (B)=0-30%)
17 | c1cc2cn[nH]c2cc1CNC12CC3CC(CC(C3)C1)C2 [Example 95, Adamantan-1-yl-(1H-indazol-6-ylmethyl)-amine] |  |  | B (key: (A)=31-95%; (B)=0-30%) | A (key: (A)=31-95%; (B)=0-30%)
18 | c1cc(CNC23CC4CC(CC(C4)C2)C3)c2cc[nH]c2c1 [Example 96, Adamantan-1-yl-(1H-indol-4-ylmethyl)-amine] |  |  | B (key: (A)=31-95%; (B)=0-30%) | A (key: (A)=31-95%; (B)=0-30%)

Row | SMILES | S31N OOcyte Inhibition at 100 uM (%) [1] | V27A OOcyte Inhibition at 100 uM (%) [2] | S31N OOcyte Inhibition at 100 uM (%) ([1]; pH 5.5) | V27A OOcyte Inhibition at 100 uM (%) ([2]; pH 5.5)
19 | Oc1c(CNC23CC4CC(CC(C4)C2)C3)ccc2ccccc12 [Example 97, 2-(Adamantan-1-ylaminomethyl)-naphthalen-1-ol] |  |  | A (key: (A)=31-95%; (B)=0-30%) | B (key: (A)=31-95%; (B)=0-30%)
20 | Cc1ccc(C(C)NC23CC4CC(CC(C4)C2)C3)s1 (stereo not drawn) [Example 97a, N-(1-(5-methylthiophen-2-yl)ethyl)adamantan-1-amine] | B (key: (A)=31-95%; (B)=0-30%) | B (key: (A)=31-95%; (B)=0-30%) |  | 
21 | c1ccc2nc(CNC34CC5CC(CC(C5)C3)C4)ccc2c1 [Example 98, Adamantan-1-yl-quinolin-2-ylmethyl-amine] |  |  | A (key: (A)=31-95%; (B)=0-30%) | B (key: (A)=31-95%; (B)=0-30%)
22 | CCc1ccc(CNC23CC4CC(CC(C4)C2)C3)s1 [Example 98a, N-((5-ethylthiophen-2-yl)methyl)adamantan-1-amine] | A (key: (A)=31-95%; (B)=0-30%) | B (key: (A)=31-95%; (B)=0-30%) |  | 
23 | Oc1ccc(CNC2C3CC4CC(C3)CC2C4)cc1 (stereo not drawn) [Example 99, 4-(Adamantan-2-ylaminomethyl)-phenol] |  |  | B (key: (A)=31-95%; (B)=0-30%) | B (key: (A)=31-95%; (B)=0-30%)
24 | Cc1nc(CNC23CC4CC(CC(C4)C2)C3)c[nH]1 [Example 99a, N-((2-methyl-1H-imidazol-4-yl)methyl)adamantan-1-amine] | B (key: (A)=31-95%; (B)=0-30%) | B (key: (A)=31-95%; (B)=0-30%) |  | 
25 | Oc1ccc(CNC2C3CC4CC(C3)CC2C4)c(O)c1 (stereo not drawn) [Example 100, 4-(Adamantan-2-ylaminomethyl)-benzene-1,3-diol] |  |  | B (key: (A)=31-95%; (B)=0-30%) | A (key: (A)=31-95%; (B)=0-30%)
26 | O=[N+]([O-])c1ccc(CNC23CC4CC(CC(C4)C2)C3)s1 [Example 100a, N-((5-nitrothiophen-2-yl)methyl)adamantan-1-amine] | B (key: (A)=31-95%; (B)=0-30%) | A (key: (A)=31-95%; (B)=0-30%) |  | 
27 | Oc1ccc(CNC2C3CC4CC(C3)CC2C4)cc1O (stereo not drawn) [Example 101, 4-(Adamantan-2-ylaminomethyl)-benzene-1,2-diol] |  |  | B (key: (A)=31-95%; (B)=0-30%) | B (key: (A)=31-95%; (B)=0-30%)
28 | CC(C)(C)c1cc(CNC23CC4CC(CC(C4)C2)C3)[nH]n1 [Example 101a, N-((3-(tert-butyl)-1H-pyrazol-5-yl)methyl)adamantan-1-amine] | B (key: (A)=31-95%; (B)=0-30%) | B (key: (A)=31-95%; (B)=0-30%) |  | 
29 | CC(NC1C2CC3CC(C2)CC1C3)c1ccc(O)cc1O (stereo not drawn) [Example 102, 4-[1-(Adamantan-2-ylamino)-ethyl]-benzene-1,3-diol] |  |  | B (key: (A)=31-95%; (B)=0-30%) | A (key: (A)=31-95%; (B)=0-30%)
30 | CSc1ccc(CNC2C3CC4CC(C3)CC2C4)cc1 (stereo not drawn) [Example 103, Adamantan-2-yl-(4-methylsulfanyl-benzyl)-amine] |  |  | A (key: (A)=31-95%; (B)=0-30%) | A (key: (A)=31-95%; (B)=0-30%)
31 | OC1CCN(C2C3CC4CC(C3)CC2C4)CC1 (stereo not drawn) [Example 104, 1-Adamantan-2-yl-piperidin-4-ol] |  |  | B (key: (A)=31-95%; (B)=0-30%) | B (key: (A)=31-95%; (B)=0-30%)
32 | c1c(CNC2C3CC4CC(C3)CC2C4)nc2n1CCS2 (stereo not drawn) [Example 105, Adamantan-2-yl-(2,3-dihydro-imidazo[2,1-b]thiazol-6-ylmethyl)-amine] |  |  | B (key: (A)=31-95%; (B)=0-30%) | B (key: (A)=31-95%; (B)=0-30%)
33 | Cc1nn2cc(CNC3C4CC5CC(C4)CC3C5)nc2s1 (stereo not drawn) [Example 106, Adamantan-2-yl-(2-methyl-imidazo[2,1-b][1,3,4]thiadiazol-6-ylmethyl)-amine] |  |  | B (key: (A)=31-95%; (B)=0-30%) | A (key: (A)=31-95%; (B)=0-30%)
34 | c1cn2cc(CNC3C4CC5CC(C4)CC3C5)nc2s1 (stereo not drawn) [Example 107, Adamantan-2-yl-imidazo[2,1-b]thiazol-6-ylmethyl-amine] |  |  | B (key: (A)=31-95%; (B)=0-30%) | B (key: (A)=31-95%; (B)=0-30%)
35 | CC1(C)CCC(NCc2ccc(O)cc2O)CC1 [Example 108, 4-[(4,4-Dimethyl-cyclohexylamino)-methyl]-benzene-1,3-diol] |  |  | B (key: (A)=31-95%; (B)=0-30%) | B (key: (A)=31-95%; (B)=0-30%)
36 | CC(C)(C)C1CCC(NCc2ccc(O)cc2O)CC1 (stereo not drawn) [Example 109, 4-[(4-tert-Butyl-cyclohexylamino)-methyl]-benzene-1,3-diol] |  |  | B (key: (A)=31-95%; (B)=0-30%) | A (key: (A)=31-95%; (B)=0-30%)
